Experimental data reported in patent US7998978B2 (Pfizer Inc., priority 2006, dated 2011).

Target: T1, JNK1α1 (Homo sapiens, UniProt P45983)
T1 construct: catalytic domain containing amino acids 1-364 and N-terminal hexahistidine tag; hexahistidine (His6) (N); made in house; host or cells: E. coli BL21 (DE3)
Test: Coupled spectrophotometric (PK/LDH) JNK1α1 assay: % inhibition and Ki determination
Assay type: biochemical
Conditions: for inhibition at 1 µM / inhibition at 10 µM: read-out: % Inhibition JNK-1; for Ki: JNK-1
Summary of the method: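 Initial rates were taken from the absorbance decrease at 340 nm at 30° C. Ki was fitted with a tight-binding model over 11 concentrations (top 100 μM); single-point inhibition was tested at 1 or 10 μM.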

T1 sequence (P45983 1-364): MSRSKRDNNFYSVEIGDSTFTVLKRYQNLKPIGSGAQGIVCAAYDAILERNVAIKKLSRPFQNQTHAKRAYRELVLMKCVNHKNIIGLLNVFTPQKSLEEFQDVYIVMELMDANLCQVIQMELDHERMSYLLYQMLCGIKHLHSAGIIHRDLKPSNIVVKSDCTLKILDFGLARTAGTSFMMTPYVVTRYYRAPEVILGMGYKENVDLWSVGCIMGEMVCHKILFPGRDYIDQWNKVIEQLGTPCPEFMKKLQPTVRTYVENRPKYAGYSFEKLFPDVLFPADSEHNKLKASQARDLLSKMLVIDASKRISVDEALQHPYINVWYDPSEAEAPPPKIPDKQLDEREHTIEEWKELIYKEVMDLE

SMILES: O=C(NC[C@@H](O)c1ccccc1)c1cccc2cnc(N[C@H]3CC[C@H](O)CC3)nc12 [Example 474, 2-[(trans-4-hydroxycyclohexyl)amino]-N-[(2S)-2-hydroxy-2-phenylethyl]quinazoline-8-carboxamide]
- inhibition at 1 µM: 37%

SMILES: CCn1nc(C)c(CNC(=O)c2cccc3cnc(N[C@H]4CC[C@H](O)CC4)nc23)c1C [Example 496, N-[(1-ethyl-3,5-dimethyl-1H-pyrazol-4-yl)methyl]-2-[(trans-4-hydroxycyclohexyl)amino]quinazoline-8-carboxamide]
- inhibition at 1 µM: 41%

SMILES: c1cc(OC2CCOC2)c2nc(NC3CCOCC3)ncc2c1 (stereo not drawn) [Example 173, 8-(tetrahydrofuran-3-yloxy)-N-(tetrahydro-2H-pyran-4-yl)quinazolin-2-amine]
- Ki: 1910 nM

SMILES: CCOCC(C)Oc1ccc2cnc(N[C@H]3CC[C@H](O)CC3)nc2c1 (stereo partly drawn) [Example 275, trans-4-{[7-(2-ethoxy-1-methylethoxy)quinazolin-2-yl]amino}cyclohexanol]
- inhibition at 1 µM: 52%

SMILES: O=C(NC1CCCOC1)c1ccc2cnc(N[C@H]3CC[C@H](O)CC3)nc2c1 (stereo partly drawn) [Example 353, 2-[(trans-4-hydroxycyclohexyl)amino]-N-(tetrahydro-2H-pyran-3-yl)quinazoline-7-carboxamide]
- Ki: 1170 nM

SMILES: CC(=O)N[C@H]1CC[C@H](Nc2ncc3cccc(C(=O)NC(C)(C)CO)c3n2)CC1 [Example 134, 2-{[trans-4-(acetylamino)cyclohexyl]amino}-N-(2-hydroxy-1,1-dimethylethyl)quinazoline-8-carboxamide]
- Ki: 127 nM

SMILES: CC(C)[C@@H]1CC[C@@H](C)C[C@H]1OCC(=O)Nc1cc2cc(-c3cn[nH]c3)ccc2cn1 [Example 57, 2-{[(1R,2S,5R)-2-isopropyl-5-methylcyclohexyl]oxy}-N-[6-(1H-pyrazol-4-yl)isoquinolin-3-yl]acetamide]
- Ki: 4 nM

SMILES: O=C(COc1cccc(-c2cnccn2)c1)Nc1cc2cc(-c3cn[nH]c3)ccc2cn1 [Example 32, 2-(3-pyrazin-2-ylphenoxy)-N-[6-(1H-pyrazol-4-yl)isoquinolin-3-yl]acetamide]
- Ki: 8 nM

SMILES: O[C@H]1CC[C@H](Nc2ncc3cccc(OCc4ccccn4)c3n2)CC1 [Example 248, trans-4-{[8-(pyridin-2-ylmethoxy)quinazolin-2-yl]amino}cyclohexanol]
- Ki: 303 nM

SMILES: CC[C@@H](CO)NC(=O)c1ccc2cnc(NC3CCCC3)nc2c1 [Example 436, 2-(cyctopentylamino)-N-[(1S)-1-(hydroxymethyl)propyl]quinazoline-7-carboxamide]
- inhibition at 10 µM: 85%

SMILES: CC(=O)N1CCC(c2cccc3cnc(N[C@H]4CC[C@H](O)CC4)nc23)C1 (stereo partly drawn) [Example 197]
- Ki: 143 nM

SMILES: O[C@H]1CC[C@H](Nc2ncc3cccc(OCCc4cn[nH]c4)c3n2)CC1 [Example 245, trans-4-({8-[2-(1H-pyrazol-4-yl)ethoxy]quinazolin-2-yl}amino)cyclohexanol]
- Ki: 239 nM

SMILES: Cc1cc(CNC(=O)c2cccc3cnc(N[C@H]4CC[C@H](O)CC4)nc23)nn1C [Example 521, N-[(1,5-dimethyl-1H-pyrazol-3-yl)methyl]-2-[(trans-4-hydroxycyclohexyl)amino]quinazoline-8-carboxamide]
- inhibition at 1 µM: 49%

SMILES: CC[C@H](C)[C@@H](CO)NC(=O)c1ccc2cnc(NC3CCCC3)nc2c1 [Example 396]
- Ki: 424 nM

SMILES: O=C(NCCc1cn2cccnc2n1)c1cccc2cnc(N[C@H]3CC[C@H](O)CC3)nc12 [Example 499, 2-[(trans-4-hydroxycyclohexyl)amino]-N-(2-imidazo[1,2-a]pyrimidin-2-ylethyl)quinazoline-8-carboxamide]
- inhibition at 1 µM: 8%

SMILES: CCN[C@H]1CC[C@H](Nc2ncc3cccc(OC4CCOCC4)c3n2)CC1 [Example 190, trans-N-ethyl-N′-[8-(tetrahydro-2H-pyran-4-yloxy)quinazolin-2-yl]cyclohexane-1,4-diamine]
- Ki: 342 nM

SMILES: C[C@@H](CO)NC(=O)c1ccc2cnc(NC3CCCCC3)nc2c1 [Example 399, 2-(cyclohexylamino)-N-[(1S)-2-hydroxy-1-methylethyl]quinazoline-7-carboxamide]
- Ki: 461 nM

SMILES: O[C@H]1CC[C@H](Nc2ncc3cccc(OCCN4CCOCC4)c3n2)CC1 [Example 250, trans-4-{[8-(2-morpholin-4-ylethoxy)quinazolin-2-yl]amino}cyclohexanol]
- inhibition at 1 µM: 24%

SMILES: O[C@H]1CC[C@H](Nc2ncc3cccc(OC4CCC(F)(F)CC4)c3n2)CC1 [Example 239, trans-4-({8-[(4,4-difluorocyclohexyl)oxy]quinazolin-2-yl}amino)cyclohexanol]
- Ki: 67 nM

SMILES: O[C@H]1CC[C@H](Nc2ncc3cccc(OC4CCN(c5ccncn5)CC4)c3n2)CC1 [Example 247, trans-4-({8-[(1-pyrimidin-4-ylpiperidin-4-yl)oxy]quinazolin-2-yl}amino)cyclohexanol]
- Ki: 274 nM

SMILES: CC(C)c1nc(CNC(=O)c2cccc3cnc(N[C@H]4CC[C@H](O)CC4)nc23)no1 [Example 502, 2-[(trans-4-hydroxycyclohexyl)amino]-N-[(5-isopropyl-1,2,4-oxadiazol-3-yl)methyl]quinazoline-8-carboxamide]
- inhibition at 10 µM: 50%

SMILES: O[C@H]1CC[C@H](Nc2ncc3cccc(O[C@H]4CCOC4)c3n2)CC1 [Example 168, trans-4-({8-[(3S)-tetrahydrofuran-3-yloxy]quinazolin-2-yl}amino)cyclohexanol]
- Ki: 574 nM

SMILES: O=C(Cc1ccc(Oc2ccnc3ccsc23)cc1)Nc1cc2cc(-c3cn[nH]c3)ccc2cn1 [Example 24, N-[6-(1H-pyrazol-4-yl)isoquinolin-3-yl]-2-[4-(thieno[3,2-b]pyridin-7-yloxy)phenyl]acetamide]
- Ki: 25 nM

SMILES: CC(=O)N[C@H]1CC[C@H](Nc2ncc3cccc(OC4CCOCC4)c3n2)CC1 [Example 179, N-(trans-4-{[8-(tetrahydro-2H-pyran-4-yloxy)quinazolin-2-yl]amino}cyclohexyl)acetamide]
- Ki: 665 nM

SMILES: Cc1noc(CCNC(=O)c2cccc3cnc(N[C@H]4CC[C@H](O)CC4)nc23)n1 [Example 523, 2-[(trans-4-hydroxycyclohexyl)amino]-N-[2-(3-methyl-1,2,4-oxadiazol-5-yl)ethyl]quinazoline-8-carboxamide]
- inhibition at 10 µM: 44%

SMILES: O=C(NC1CCCOC1)c1cccc2cnc(N[C@H]3CC[C@H](O)CC3)nc12 (stereo partly drawn) [Example 488, 2-[(trans-4-hydroxycyclohexyl)amino]-N-(tetrahydro-2H-pyran-3-yl)quinazoline-8-carboxamide]
- inhibition at 1 µM: 40%

SMILES: CC(C)Nc1ncc2ccc(C(=O)N[C@@H]3COC[C@H]3O)cc2n1 [Example 432, N-((3R,4S)-4-hydroxytetrahydrofuran-3-yl]-2-(isopropylamino)quinazoline-7-carboxamide]
- inhibition at 1 µM: 15%

SMILES: O=C(N[C@@H]1CCCC[C@@H]1CO)c1cccc2cnc(N[C@H]3CC[C@H](O)CC3)nc12 [Example 446, 2-[(trans-4-hydroxycyclohexyl)amino]-N-[(1R,2S)-2-(hydroxymethyl)cyclohexyl]quinazoline-8-carboxamide]
- Ki: 112 nM

SMILES: FC1(F)CCC(Nc2ncc3cccc(OC4CCOCC4)c3n2)CC1 [Example 176, N-(4,4-difluorocyclohexyl)-8-(tetrahydro-2H-pyran-4-yloxy)quinazolin-2-amine]
- Ki: 422 nM

SMILES: Cn1ccnc1-c1ccc(CNc2cc3cc(-c4cn[nH]c4)ccc3cn2)cc1 [Example 230, N-[4-(1-methyl-1H-imidazol-2-yl)benzyl]-6-(1H-pyrazol-4-yl)isoquinolin-3-amine]
- inhibition at 10 µM: 43%

SMILES: Cc1cnc(C(=O)NCC(=O)Nc2cc3cc(-c4cn[nH]c4)ccc3cn2)cn1 [Example 43, 5-methyl-N-(2-oxo-2-{[6-(1H-pyrazol-4-yl)isoquinolin-3-yl]amino}ethyl)pyrazine-2-carboxamide]
- Ki: 8 nM

SMILES: CNC(=O)c1ccc2c(c1)CCO[C@H]2CCOc1ccc2cnc(N[C@H]3CC[C@H](O)CC3)nc2c1 [Example 292, (1S)-1-[2-({2-[(trans-4-hydroxycyclohexyl)amino]quinazolin-7-yl}oxy)ethyl]-N-methyl-3,4-dihydro-1H-isochromene-6-carboxamide]
- inhibition at 1 µM: 54%

SMILES: c1cnc2ccc(CNc3cc4cc(-c5cn[nH]c5)ccc4cn3)cc2c1 [Example 221, 6-(1H-pyrazol-4-yl)-N-(quinolin-6-ylmethyl)isoquinolin-3-amine]
- Ki: 2220 nM

SMILES: O=C(NCc1ccc(C2CC2)cn1)c1cccc2cnc(N[C@H]3CC[C@H](O)CC3)nc12 [Example 518, N-[(5-cyclopropylpyridin-2-yl)methyl]-2-[(trans-4-hydroxycyclohexyl)amino]quinazoline-8-carboxamide]
- inhibition at 10 µM: 60%

SMILES: CC[C@H](C)[C@@H](CO)NC(=O)c1ccc2cnc(NC(C)C)nc2c1 [Example 409, N-[(1S,2S)-1-(hydroxymethyl)-2-methylbutyl]-2-(isopropylamino)quinazoline-7-carboxamide]
- Ki: 772 nM

SMILES: CC(Cn1cccn1)NC(=O)c1cccc2cnc(N[C@H]3CC[C@H](O)CC3)nc12 (stereo partly drawn) [Example 482, 2-[(trans-4-hydroxycyclohexyl)amino]-N-[1-methyl-2-(1H-pyrazol-1-yl)ethyl]quinazoline-8-carboxamide]
- inhibition at 1 µM: 13%

SMILES: Cn1ncc(NC(=O)c2ccc3cnc(N[C@H]4CC[C@H](O)CC4)nc3c2)n1 [Example 358, 2-[(trans-4-hydroxycyclohexyl)amino]-N-(2-methyl-2H-1,2,3-triazol-4-yl)quinazoline-7-carboxamide]
- Ki: 1700 nM

SMILES: CCN1CC(CNC(=O)c2cccc3cnc(N[C@H]4CC[C@H](O)CC4)nc23)CC1=O (stereo partly drawn) [Example 508, N-[(1-ethyl-5-oxopyrrolidin-3-yl)methyl]-2-[(trans-4-hydroxycyclohexyl)amino]quinazoline-8-carboxamide]
- inhibition at 1 µM: 21%

SMILES: O=C(NC(CO)c1ccccn1)c1ccc2cnc(N[C@H]3CC[C@H](O)CC3)nc2c1 (stereo partly drawn) [Example 100, 2-[(trans-4-hydroxycyclohexyl)amino]-N-(2-hydroxy-1-pyridin-2-ylethyl)quinazoline-7-carboxamide]
- Ki: 120 nM
